The subject of assay [1] is MV-4-11 cells. Briefly: Cell growth inhibition assay (CellTiter-Glo), MV-4-11.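 On all read-outs here: cellular ATP luminescence after 4 days, 3-fold dilution series from 10 µM top dose, vehicle (0.1% DMSO) set to 100%, cell-free medium set to −100%, day 0 corrected.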 The following applies: for GI50: Homo sapiens, MV4-11, read-out: MV-4-11 GI50; for MV-4-11 TGI: MV-4-11 cells, total growth inhibition, CellTiter-Glo. On the technique in general: In ATP-based viability assays light output follows the ATP content of the culture.
Assay [2] concerns the target BRD2 (His-Brd2(60-472)) (Homo sapiens (Human), UniProt P25440). Briefly: TR-FRET in-vitro binding assay for BRD2. Particulars: single determination or n ≧ 2 independent determinations, read-out: Biochemical IC50 BRD2. On the procedure: (§1) TR-FRET In-Vitro Binding Assays for BRD2, BRD3, and BRD4:
(§2) All assays were performed in 384 well microtiter plates. Each assay plate contained 8-point serial dilutions for 40 test compounds, plus 16 high- and 16 low controls. Liquid handling and incubation steps were done on an Innovadyne Nanodrop Express equipped with a robotic arm (Thermo CatX, Perkin Elmer/Caliper Twister II) and an incubator (Liconic STX40, Thermo Cytomat 2C450). The assay plates were prepared by addition of 50 nl per well of compound solution in 90% DMSO HummingBird nanodispenser (Zinsser Analytic). […] Reactions were incubated at 30° C. for 35 minutes. […] After 35 minutes incubation at 30° C., plates were measured in a Perkin Elmer EnVision multilabel reader.
(§3) Preparation of Compound Dilutions
(§4) Test compounds were dissolved in DMSO (10 mM) and transferred into 1.4 mL flat bottom or V-shaped Matrix tubes carrying a unique 2D matrix. The stock solutions were stored at […] if not used immediately. For the test procedure the vials were defrosted and identified by a scanner whereby a working sheet was generated that guided the subsequent working steps.
(§5) Compound dilutions were made in 96 well plates. This format enabled the assay of maximally 40 individual test compounds at 8 concentrations (single points) including 4 reference compounds, if desired (known BET inhibitors from the prior art, for this and other assays of the type disclosed herein). The dilution protocol included the production of “pre-dilution plates”, “master plates” and “assay plates”.
(§6) Pre-Dilution Plates: 96 polypropylene well plates were used as pre-dilution plates. A total of 4 pre-dilution plates were prepared including 10 test compounds each on the plate positions A1-A10, one standard compound at A11 and one DMSO control at A12. All dilution steps were done on a HamiltonSTAR robot.
(§7) These plates were used directly for the assay which was performed in a total volume of 13.55 μL.

The target of assay [3] is BRD4 (His-Brd4(44-477)) (Homo sapiens (Human), UniProt O60885). Briefly: TR-FRET in-vitro binding assay for BRD4. The following applies: single determination or n ≧ 2 independent determinations, read-out: Biochemical IC50 BRD4. On the procedure:
as §1, §2, §3, §4, §5, §6, §7

The subject of assay [4] is K-562 cells. As to the kind of experiment: Cell growth inhibition assay (CellTiter-Glo), K-562.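 On all read-outs here: cellular ATP measured by luminescence after 4 days of exposure, 3-fold dilution series from 10 µM, DMSO vehicle-treated cells define 100%, cell-free medium wells −100%.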 Particulars: for GI50: Homo sapiens, K562, read-out: K-562 GI50; for K-562 TGI: K-562 cells, total growth inhibition, CellTiter-Glo.
The target of assay [5] is BRD3 (His-Brd3(20-477)) (Homo sapiens (Human), UniProt Q15059). As to the kind of experiment: TR-FRET in-vitro binding assay for BRD3. Particulars: single determination or n ≧ 2 independent determinations, read-out: Biochemical IC50 BRD3. As for the experimental part:
as §1, §2, §3, §4, §5, §6, §7
For orientation: In TR-FRET formats the signal depends on donor and acceptor labels being close together.

Assay [6] relates to THP-1 cells. As to the kind of experiment: Cell growth inhibition assay (CellTiter-Glo), THP-1.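 On all read-outs here: viability read as cellular ATP luminescence after 4 days, 3-fold dilution series from 10 µM, DMSO vehicle-treated cells taken as 100%, cell-free medium wells as −100%.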 Particulars: for GI50: Homo sapiens, THP-1, read-out: THP-1 GI50; for THP-1 TGI: THP-1 cells, total growth inhibition, CellTiter-Glo.
Assay [7] addresses CREBBP bromodomain (His-CREBBP(1081-1197)) (Homo sapiens (Human), UniProt Q92793). Briefly: AlphaScreen in-vitro binding assay for CREBBP. Particulars: single determination or n ≧ 2 independent determinations, read-out: Biochemical IC50 CREBBP. On the procedure: AlphaScreen In-Vitro Binding Assay for CREBBP
In order to assess bromodomain selectivity, we set up a binding assay using the bromodomain encoded by the CREBBP gene. […] Reactions were incubated at 30° C. for 35 minutes. Subsequently 4.5 μl per well detection mix (50 mM HEPES, pH 7.5, 0.005% Tween20, 0.02% BSA, 150 mM NaCl, 45 μg/ml Ni-chelate acceptor beads, 45 μg/mIstreptavidin-donor beads) (Perkin Elmer)) were added. After 60 minutes incubation at room temperature, plates were measured in a Perkin Elmer EnVision multilabel reader. IC50 values were determined from percent inhibition values at different compound concentrations by non-linear regression analysis.
as §3, §4, §5, §6, §7
A general note: In Alpha technology, singlet oxygen from a donor bead excites a nearby acceptor bead.

Sequence of CREBBP bromodomain (His-CREBBP(1081-1197)) (Q92793 1081-1197): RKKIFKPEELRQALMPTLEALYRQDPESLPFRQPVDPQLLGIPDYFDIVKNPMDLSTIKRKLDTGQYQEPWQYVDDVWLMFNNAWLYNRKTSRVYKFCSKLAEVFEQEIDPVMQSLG
Sequence of BRD2 (His-Brd2(60-472)) (P25440 60-472): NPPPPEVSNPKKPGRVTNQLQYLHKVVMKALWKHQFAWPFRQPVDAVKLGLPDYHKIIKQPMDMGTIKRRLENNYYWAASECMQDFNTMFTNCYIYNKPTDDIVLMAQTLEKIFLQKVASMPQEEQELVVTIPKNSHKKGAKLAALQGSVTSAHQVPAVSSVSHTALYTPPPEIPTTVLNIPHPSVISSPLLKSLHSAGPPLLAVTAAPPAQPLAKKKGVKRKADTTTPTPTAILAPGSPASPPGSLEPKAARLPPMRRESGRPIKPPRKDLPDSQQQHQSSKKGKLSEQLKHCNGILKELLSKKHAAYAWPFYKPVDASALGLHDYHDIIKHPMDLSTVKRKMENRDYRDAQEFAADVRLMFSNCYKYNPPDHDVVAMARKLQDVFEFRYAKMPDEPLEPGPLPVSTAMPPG
Sequence of BRD3 (His-Brd3(20-477)) (Q15059 20-477): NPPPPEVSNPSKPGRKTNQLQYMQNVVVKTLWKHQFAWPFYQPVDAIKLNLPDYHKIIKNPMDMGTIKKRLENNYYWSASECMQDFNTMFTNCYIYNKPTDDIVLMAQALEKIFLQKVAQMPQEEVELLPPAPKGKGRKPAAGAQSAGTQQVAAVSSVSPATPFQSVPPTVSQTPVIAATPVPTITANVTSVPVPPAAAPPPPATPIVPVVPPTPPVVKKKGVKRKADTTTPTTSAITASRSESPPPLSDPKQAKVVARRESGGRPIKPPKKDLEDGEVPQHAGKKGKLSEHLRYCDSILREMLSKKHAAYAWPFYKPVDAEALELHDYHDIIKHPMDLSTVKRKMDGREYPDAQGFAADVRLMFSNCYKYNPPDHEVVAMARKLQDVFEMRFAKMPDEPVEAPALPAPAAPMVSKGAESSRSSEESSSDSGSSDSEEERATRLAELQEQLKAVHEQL

As a reminder, the GI50 is the concentration that inhibits growth by half. As a reminder, the IC50 is the concentration at which inhibition is half-maximal. Take `COc1ncccc1-c1nc2c(n1C(C)C)C(c1ccc(Cl)cc1)N(c1cc(C)c3nnn(C)c3c1)C2=O` (racemic) [Example 77, 6-(4-chlorophenyl)-5-(1,4-dimethyl-1H-benzo[d][1,2,3]triazol-6-yl)-1-isopropyl-2-(2-methoxypyridin-3-yl)-5,6-dihydropyrrolo[3,4-d]imidazol-4(1H)-one]: the concentration for 50% growth inhibition (GI50) in assay [1] amounted to 4.93 nM; in assay [4], 21.5 nM; in assay [6], 7.94 nM. For the same compound, the “MV-4-11 TGI” value in assay [1] is 9.36 nM. Besides, the values for the IC50 in assay [2], in assay [3] and in assay [5] were 52 nM, below 24 nM and 39 nM, respectively. In assay [4], the “K-562 TGI” value is above 10000 nM. Also, in assay [6], the “THP-1 TGI” value is 21.7 nM.
`CC(C)n1c(-c2ccccn2)nc2c1C(c1ccc(Cl)cc1)N(c1ccc(=O)n(C)c1)C2=O` (stereo not shown) [Example 20, 6-(4-chlorophenyl)-1-isopropyl-5-(1-methyl-6-oxo-1,6-dihydropyridin-3-yl)-2-(Pyridin-2-yl)-5,6-dihydropyrrolo[3,4-d]imidazol-4(1H)-one]: the concentration for half-maximal inhibition (IC50) in assay [2] amounted to 710 nM; in assay [3], 630 nM; in assay [7], 24600 nM; in assay [5], 610 nM.
Regarding `CC(C)n1c(-c2ccnn2C)nc2c1C(c1ccc(Cl)cc1)N(c1ccc(=O)n(C)c1)C2=O` (stereo not shown) [Example 21, 6-(4-chlorophenyl)-1-isopropyl-2-(1-methyl-1H-pyrazol-5-yl)-5-(1-methyl-6-oxo-1,6-dihydropyridin-3-yl)-5,6-dihydropyrrolo[3,4-d]imidazol-4(1H)-one], the concentration for half-maximal inhibition (IC50) in assay [2] was found to be 1100 nM; in assay [3], 772 nM; in assay [7], 34800 nM; in assay [5], 840 nM.
As to `CC(C)n1c(-c2ccn(C)n2)nc2c1C(c1ccc(Cl)cc1)N(c1ccc(=O)n(C)c1)C2=O` (stereo not shown) [Example 22, 6-(4-chlorophenyl)-1-isopropyl-2-(1-methyl-1H-pyrazol-3-yl)-5-(1-methyl-6-oxo-1,6-dihydropyridin-3-yl)-5,6-dihydropyrrolo[3,4-d]imidazol-4(1H)-one], the IC50 in assay [2] is 607 nM; in assay [3] it was 495 nM; in assay [7], above 37000 nM; in assay [5] it was 603 nM.
As for `Cc1cc(N2C(=O)c3nc(-c4nccs4)n(C(C)C)c3C2c2ccc(Cl)cc2)cn(C)c1=O` (stereo not shown) [Example 23, 6-(4-chlorophenyl)-5-(1,5-dimethyl-6-oxo-1,6-dihydropyridin-3-yl)-1-isopropyl-2-(thiazol-2-yl)-5,6-dihydropyrrolo[3,4-d]imidazol-4(1H)-one], the 50% growth inhibitory concentration (GI50) in assay [1] came out at 87.5 nM; in assay [4], 381 nM; in assay [6], 158 nM. Further, in assay [1], the “MV-4-11 TGI” value came out at 143 nM. Besides, the IC50 in assay [2] amounted to 55 nM; in assay [3] it was 52 nM; in assay [5], 68 nM. In addition, the “K-562 TGI” value in assay [4] was above 10000 nM. For the same compound, in assay [6], the “THP-1 TGI” value worked out at 311 nM.
Take `Cc1cc(N2C(=O)c3nc(-c4nccs4)n(C(C)C)c3[C@H]2c2ccc(Cl)cc2)cn(C)c1=O` [Example 24, (R)-6-(4-chlorophenyl)-5-(1,5-dimethyl-6-oxo-1,6-dihydropyridin-3-yl)-1-isopropyl-2-(thiazol-2-yl)-5,6-dihydropyrrolo[3,4-d]imidazol-4(1H)-one]: the IC50 is 30 nM in assay [2], 42.5 nM in assay [3], 455 nM in assay [7] and 41.5 nM in assay [5].
Regarding `Cc1nc(C)c(-c2nc3c(n2C(C)C)C(c2ccc(Cl)cc2)N(c2cc(C)c(=O)n(C)c2)C3=O)s1` (stereo not shown) [Example 25, 6-(4-chlorophenyl)-5-(1,5-dimethyl-6-oxo-1,6-dihydropyridin-3-yl)-2-(2,4-dimethylthiazol-5-yl)-1-isopropyl-5,6-dihydropyrrolo[3,4-d]imidazol-4(1H)-one], the values for the GI50 in assay [1], in assay [4] and in assay [6] were 65.7 nM, 528 nM and 118 nM, respectively. In addition, in assay [1], the “MV-4-11 TGI” value turned out to be 90.4 nM. The half-maximal inhibitory concentration (IC50) in assay [2] came to 120 nM; in assay [3], 99 nM; in assay [5], 79 nM. Moreover, in assay [4], the “K-562 TGI” value is above 10000 nM. For the same compound, the “THP-1 TGI” value in assay [6] was 209 nM.
In the case of `Cc1ncc(-c2nc3c(n2C(C)C)C(c2ccc(Cl)cc2)N(c2cc(C)c(=O)n(C)c2)C3=O)s1` (stereo not shown) [Example 29, 6-(4-chlorophenyl)-5-(1,5-dimethyl-6-oxo-1,6-dihydropyridin-3-yl)-1-isopropyl-2-(2-methylthiazol-5-yl)-5,6-dihydropyrrolo[3,4-d]imidazol-4(1H)-one], the IC50 in assay [2] stood at 81 nM; in assay [3], 110 nM; in assay [7] it was 800 nM; in assay [5], 100 nM.
For `Cc1cc(N2C(=O)c3nc(-c4ccc[nH]4)n(C(C)C)c3C2c2ccc(Cl)cc2)cn(C)c1=O` (stereo not shown) [Example 30, 6-(4-chlorophenyl)-5-(1,5-dimethyl-6-oxo-1,6-dihydropyridin-3-yl)-1-isopropyl-2-(1H-pyrrol-2-yl)-5,6-dihydropyrrolo[3,4-d]imidazol-4(1H)-one] the same measures were 92 nM, 120 nM, 1000 nM and 100 nM.
Turning to `Cc1cc(N2C(=O)c3nc(C4CCCC4)n(C(C)C)c3C2c2ccc(Cl)cc2)cn(C)c1=O` (stereo not shown) [Example 31, 6-(4-chlorophenyl)-2-cyclopentyl-5-(1,5-dimethyl-6-oxo-1,6-dihydropyridin-3-yl)-1-isopropyl-5,6-dihydropyrrolo[3,4-d]imidazol-4(1H)-one], the GI50 in assay [1] amounted to 36.4 nM; in assay [4] it was 349 nM; in assay [6], 79.4 nM. In assay [1], the “MV-4-11 TGI” value was 59.9 nM. For the same compound, the half-inhibitory concentration (IC50) stood at 45 nM in assay [2], 47 nM in assay [3] and 37 nM in assay [5]. Also, the “K-562 TGI” value in assay [4] was above 10000 nM. Further, the “THP-1 TGI” value in assay [6] was found to be 125 nM.
In the case of `Cc1cc(N2C(=O)c3nc(-c4cccnc4F)n(C)c3C2c2ccc(Cl)cc2)cn(C)c1=O` (stereo not shown) [Example 32, 6-(4-chlorophenyl)-5-(1,5-dimethyl-6-oxo-1,6-dihydropyridin-3-yl)-2-(2-fluoropyridin-3-yl)-1-methyl-5,6-dihydropyrrolo[3,4-d]imidazol-4(1H)-one], the IC50 in assay [2] turned out to be 180 nM; in assay [3] it was 170 nM; in assay [5] it was 130 nM.
For the compound `Cc1cc(N2C(=O)c3nc(C4CC4)n(C(C)(C)C)c3C2c2ccc(Cl)cc2)cn(C)c1=O` (stereo not shown) [Example 33, 1-(tert-butyl)-6-(4-chlorophenyl)-2-cyclopropyl-5-(1,5-dimethyl-6-oxo-1,6-dihydropyridin-3-yl)-5,6-dihydropyrrolo[3,4-d]imidazol-4(1H)-one], the IC50 in assay [2] came to 65 nM; in assay [3] it was 100 nM; in assay [7] it was 510 nM; in assay [5], 66 nM.
Regarding `COc1ncccc1-c1nc2c(n1C(C)C)[C@@H](c1ccc(Cl)cc1)N(c1cc(C)c3nnn(C)c3c1)C2=O` [Example 112, (R)-6-(4-chlorophenyl)-5-(1,4-dimethyl-1H-benzo[d][1,2,3]triazol-6-yl)-1-isopropyl-2-(2-methoxypyridin-3-yl)-5,6-dihydropyrrolo[3,4-d]imidazol-4(1H)-one], the figures for the GI50 in assay [1], in assay [4] and in assay [6] were 1.72 nM, 17.2 nM and 4.79 nM, respectively. In assay [1], the “MV-4-11 TGI” value came to 4.61 nM. Also, the IC50 is 13 nM in assay [2], below 11 nM in assay [3] and below 11 nM in assay [5]. Further, the “K-562 TGI” value in assay [4] was above 10000 nM. Further, in assay [6], the “THP-1 TGI” value worked out at 9.84 nM.

The values are drawn from patent publication US9890166B2, “Imidazopyrrolidine derivatives and their use in the treatment of disease” (NOVARTIS AG, priority 2013, dated 2018).
